Assay results as given in ChEMBL document CHEMBL1671626, “In vitro profiling of ceftaroline against a collection of recent bacterial clinical isolates from across the United States” (2008).

What was measured:
Assay type in all cases: functional
Proteus mirabilis [1] = experiment: Antibacterial activity against ceftazidime-susceptible Proteus mirabilis assessed as susceptible isolates by CLSI M7-A7 broth microdilution method
Acinetobacter [2] = experiment: Antibacterial activity against imipenem-susceptible Acinetobacter by CLSI M7-A7 broth microdilution method
Citrobacter freundii [3] = experiment: Antibacterial activity against ceftazidime-nonsusceptible Citrobacter freundii assessed as susceptible isolates by CLSI M7-A7 broth microdilution method
Klebsiella pneumoniae [4] = experiment: Antibacterial activity against ceftazidime-nonsusceptible Klebsiella pneumoniae assessed as resistant isolates by CLSI M7-A7 broth microdilution method
Proteus mirabilis [5] = experiment: Antibacterial activity against ceftazidime-susceptible Proteus mirabilis assessed as resistant isolates by CLSI M7-A7 broth microdilution method
Haemophilus influenzae [6] = experiment: Antibacterial activity against beta lactamase-positive Haemophilus influenzae assessed as susceptible isolates by CLSI M7-A7 broth microdilution method
Enterobacteriaceae [7] = experiment: Antibacterial activity against ceftazidime-nonsusceptible Enterobacteriaceae assessed as resistant isolates by CLSI M7-A7 broth microdilution method
Providencia sp. [8] = experiment: Antibacterial activity against ceftazidime-susceptible Providencia sp. by CLSI M7-A7 broth microdilution method
Escherichia coli [9] = experiment: Antibacterial activity against ceftazidime-susceptible Escherichia coli assessed as resistant isolates by CLSI M7-A7 broth microdilution method
Acinetobacter [10] = experiment: Antibacterial activity against multidrug-resistant Acinetobacter by CLSI M7-A7 broth microdilution method
Enterobacter cloacae [11] = experiment: Antibacterial activity against ceftazidime-nonsusceptible Enterobacter cloacae by CLSI M7-A7 broth microdilution method
Enterobacter cloacae [12] = experiment: Antibacterial activity against ceftazidime-susceptible Enterobacter cloacae by CLSI M7-A7 broth microdilution method
Acinetobacter [13] = experiment: Antibacterial activity against imipenem-susceptible Acinetobacter assessed as resistant isolates by CLSI M7-A7 broth microdilution method
Morganella morganii [14] = experiment: Antibacterial activity against ceftazidime-susceptible Morganella morganii by CLSI M7-A7 broth microdilution method
Klebsiella pneumoniae [15] = experiment: Antibacterial activity against ceftazidime-nonsusceptible Klebsiella pneumoniae assessed as susceptible isolates by CLSI M7-A7 broth microdilution method
Haemophilus influenzae [16] = experiment: Antibacterial activity against beta lactamase-negative Haemophilus influenzae by CLSI M7-A7 broth microdilution method
Providencia sp. [17] = experiment: Antibacterial activity against ceftazidime-susceptible Providencia sp. assessed as resistant isolates by CLSI M7-A7 broth microdilution method
Proteus mirabilis [18] = experiment: Antibacterial activity against ceftazidime-susceptible Proteus mirabilis by CLSI M7-A7 broth microdilution method
Escherichia coli [19] = experiment: Antibacterial activity against ceftazidime-nonsusceptible Escherichia coli assessed as resistant isolates by CLSI M7-A7 broth microdilution method
Enterobacteriaceae [20] = experiment: Antibacterial activity against ceftazidime-nonsusceptible Enterobacteriaceae by CLSI M7-A7 broth microdilution method
Enterobacteriaceae [21] = experiment: Antibacterial activity against ceftazidime-susceptible Enterobacteriaceae by CLSI M7-A7 broth microdilution method
Citrobacter freundii [22] = experiment: Antibacterial activity against ceftazidime-nonsusceptible Citrobacter freundii by CLSI M7-A7 broth microdilution method
Escherichia coli [23] = experiment: Antibacterial activity against ceftazidime-susceptible Escherichia coli assessed as susceptible isolates by CLSI M7-A7 broth microdilution method
Klebsiella pneumoniae [24] = experiment: Antibacterial activity against ceftazidime-susceptible Klebsiella pneumoniae by CLSI M7-A7 broth microdilution method
Citrobacter freundii [25] = experiment: Antibacterial activity against ceftazidime-susceptible Citrobacter freundii by CLSI M7-A7 broth microdilution method
Enterobacter cloacae [26] = experiment: Antibacterial activity against ceftazidime-susceptible Enterobacter cloacae assessed as susceptible isolates by CLSI M7-A7 broth microdilution method
Acinetobacter [27] = experiment: Antibacterial activity against multidrug-resistant Acinetobacter assessed as susceptible isolates by CLSI M7-A7 broth microdilution method
Enterobacter cloacae [28] = experiment: Antibacterial activity against ceftazidime-susceptible Enterobacter cloacae assessed as resistant isolates by CLSI M7-A7 broth microdilution method
Klebsiella pneumoniae [29] = experiment: Antibacterial activity against ceftazidime-nonsusceptible Klebsiella pneumoniae by CLSI M7-A7 broth microdilution method
Serratia marcescens [30] = experiment: Antibacterial activity against ceftazidime-susceptible Serratia marcescens assessed as resistant isolates by CLSI M7-A7 broth microdilution method
Enterobacter cloacae [31] = experiment: Antibacterial activity against ceftazidime-nonsusceptible Enterobacter cloacae assessed as resistant isolates by CLSI M7-A7 broth microdilution method
Haemophilus influenzae [32] = experiment: Antibacterial activity against beta lactamase-positive Haemophilus influenzae by CLSI M7-A7 broth microdilution method
Citrobacter freundii [33] = experiment: Antibacterial activity against ceftazidime-susceptible Citrobacter freundii assessed as resistant isolates by CLSI M7-A7 broth microdilution method
Enterobacteriaceae [34] = experiment: Antibacterial activity against ceftazidime-nonsusceptible Enterobacteriaceae assessed as susceptible isolates by CLSI M7-A7 broth microdilution method
Morganella morganii [35] = experiment: Antibacterial activity against ceftazidime-susceptible Morganella morganii assessed as susceptible isolates by CLSI M7-A7 broth microdilution method
Serratia marcescens [36] = experiment: Antibacterial activity against ceftazidime-susceptible Serratia marcescens by CLSI M7-A7 broth microdilution method
Escherichia coli [37] = experiment: Antibacterial activity against ceftazidime-nonsusceptible Escherichia coli by CLSI M7-A7 broth microdilution method
Escherichia coli [38] = experiment: Antibacterial activity against ceftazidime-susceptible Escherichia coli by CLSI M7-A7 broth microdilution method
Morganella morganii [39] = experiment: Antibacterial activity against ceftazidime-susceptible Morganella morganii assessed as resistant isolates by CLSI M7-A7 broth microdilution method
Enterobacteriaceae [40] = experiment: Antibacterial activity against ceftazidime-susceptible Enterobacteriaceae assessed as susceptible isolates by CLSI M7-A7 broth microdilution method
Klebsiella pneumoniae [41] = experiment: Antibacterial activity against ceftazidime-susceptible Klebsiella pneumoniae assessed as resistant isolates by CLSI M7-A7 broth microdilution method
Acinetobacter [42] = experiment: Antibacterial activity against multidrug-resistant Acinetobacter assessed as resistant isolates by CLSI M7-A7 broth microdilution method
Citrobacter freundii [43] = experiment: Antibacterial activity against ceftazidime-susceptible Citrobacter freundii assessed as susceptible isolates by CLSI M7-A7 broth microdilution method
Providencia sp. [44] = experiment: Antibacterial activity against ceftazidime-susceptible Providencia sp. assessed as susceptible isolates by CLSI M7-A7 broth microdilution method
Acinetobacter [45] = experiment: Antibacterial activity against imipenem-susceptible Acinetobacter assessed as susceptible isolates by CLSI M7-A7 broth microdilution method
Escherichia coli [46] = experiment: Antibacterial activity against ceftazidime-nonsusceptible Escherichia coli assessed as susceptible isolates by CLSI M7-A7 broth microdilution method
Enterobacteriaceae [47] = experiment: Antibacterial activity against ceftazidime-susceptible Enterobacteriaceae assessed as resistant isolates by CLSI M7-A7 broth microdilution method
Citrobacter freundii [48] = experiment: Antibacterial activity against ceftazidime-nonsusceptible Citrobacter freundii assessed as resistant isolates by CLSI M7-A7 broth microdilution method

Sequence: GENTAMICIN
- Activity (Proteus mirabilis [1]): 84.5%
- MIC50 (Acinetobacter [2]): 1 µg/mL
- MIC90 (Acinetobacter [2]): > 16 µg/mL
- Activity (Citrobacter freundii [3]): 81.8%
- Activity (Klebsiella pneumoniae [4]): 43.9%
- Activity (Proteus mirabilis [5]): 8.6%
- Activity (Haemophilus influenzae [6]): 0%
- Activity (Enterobacteriaceae [7]): 40.5%
- MIC50 (Providencia sp. [8]): 2 µg/mL
- MIC90 (Providencia sp. [8]): > 16 µg/mL
- Activity (Escherichia coli [9]): 7.5%
- MIC50 (Acinetobacter [10]): > 16 µg/mL
- MIC90 (Acinetobacter [10]): > 16 µg/mL
- MIC50 (Enterobacter cloacae [11]): 0.5 µg/mL
- MIC90 (Enterobacter cloacae [11]): 16 µg/mL
- MIC50 (Enterobacter cloacae [12]): 0.25 µg/mL
- MIC90 (Enterobacter cloacae [12]): 0.5 µg/mL
- Activity (Acinetobacter [13]): 21.3%
- MIC50 (Morganella morganii [14]): 0.5 µg/mL
- MIC90 (Morganella morganii [14]): 4 µg/mL
- Activity (Klebsiella pneumoniae [15]): 43.9%
- MIC50 (Haemophilus influenzae [16]): 1 µg/mL
- MIC90 (Haemophilus influenzae [16]): 2 µg/mL
- Activity (Providencia sp. [17]): 14.8%
- MIC50 (Proteus mirabilis [18]): 1 µg/mL
- MIC90 (Proteus mirabilis [18]): 8 µg/mL
- Activity (Escherichia coli [19]): 50.8%
- MIC50 (Enterobacteriaceae [20]): 4 µg/mL
- MIC90 (Enterobacteriaceae [20]): > 16 µg/mL
- MIC50 (Enterobacteriaceae [21]): 0.5 µg/mL
- MIC90 (Enterobacteriaceae [21]): 2 µg/mL
- MIC50 (Citrobacter freundii [22]): 0.5 µg/mL
- MIC90 (Citrobacter freundii [22]): 16 µg/mL
- Activity (Escherichia coli [23]): 91.9%
- MIC50 (Klebsiella pneumoniae [24]): 0.25 µg/mL
- MIC90 (Klebsiella pneumoniae [24]): 0.5 µg/mL
- MIC50 (Citrobacter freundii [25]): 0.5 µg/mL
- MIC90 (Citrobacter freundii [25]): 8 µg/mL
- Activity (Enterobacter cloacae [26]): 96%
- Activity (Acinetobacter [27]): 18.8%
- Activity (Enterobacter cloacae [28]): 2%
- MIC50 (Klebsiella pneumoniae [29]): 8 µg/mL
- MIC90 (Klebsiella pneumoniae [29]): > 16 µg/mL
- Activity (Serratia marcescens [30]): 1.7%
- Activity (Enterobacter cloacae [31]): 17.1%
- MIC50 (Haemophilus influenzae [32]): 1 µg/mL
- MIC90 (Haemophilus influenzae [32]): 2 µg/mL
- Activity (Citrobacter freundii [33]): 10%
- Activity (Enterobacteriaceae [34]): 52.3%
- Activity (Morganella morganii [35]): 91.2%
- MIC50 (Serratia marcescens [36]): 0.5 µg/mL
- MIC90 (Serratia marcescens [36]): 1 µg/mL
- MIC50 (Escherichia coli [37]): 16 µg/mL
- MIC90 (Escherichia coli [37]): > 16 µg/mL
- MIC50 (Escherichia coli [38]): 0.5 µg/mL
- MIC90 (Escherichia coli [38]): 2 µg/mL
- Activity (Morganella morganii [39]): 8.8%
- Activity (Enterobacteriaceae [40]): 92.6%
- Activity (Klebsiella pneumoniae [41]): 1.9%
- Activity (Acinetobacter [42]): 75%
- Activity (Citrobacter freundii [43]): 88%
- Activity (Providencia sp. [44]): 74.1%
- Activity (Acinetobacter [45]): 74.5%
- Activity (Escherichia coli [46]): 46%
- Activity (Enterobacteriaceae [47]): 5.9%
- Activity (Citrobacter freundii [48]): 18.2%
